Patent publication US20240285672A1, “BETA-GLUCAN FOR PREVENTING AND/OR TREATING FIBROSIS AND RELATED DISEASES” (GN Corporation Co Ltd, priority 2021, published 2024)

Experiments:
Assay type in all cases: in vivo, C57BL/6J mice
gut microbiota = experiment: Gut microbiome analysis of fecal samples, 16S rRNA sequencing (STAM mice)
Text: Frequency: Fecal samples were collected at the 6 weeks of age (before administration) and 9 weeks of age (before sacrifice).
Procedure: At 6 weeks of age, fecal samples were collected from each mouse by clean catch method. Handle animals with clean gloves sterilized with 70% ethanol. A sterile petri dish was placed on the bench. Gently massage the abdomen, position the bottom of mouse over a fresh petri dish, and collect 1-2 fecal pellets. At sacrifice, fecal samples were aseptically collected from cecum. The tubes with feces were placed on ice immediately. These tubes were snap frozen in liquid nitrogen and stored at −80° C. for shipping.
In this analysis, the 16S rRNA sequence data acquired by the next-generation sequencer from the fecal […] was used to perform community analysis using the QIIME2 program for microbial community analysis. The raw read data in FASTQ format output from the next-generation sequencer was trimmed to remove adapter sequences and low QV regions that may be included in the data. Cutadapt was used to remove adapter sequences from DNA sequencing reads. Trimmomatic was used as read trimming tool for Illumina NGS data. The adapter sequence was trimmed using the adapter trimming program “cutadapt” if the Trimming of the region at the end of the read sequence overlapped the corresponding sequence by at least one base (mismatch tolerance: 20%). […]

[1] = test system: STAM mouse model of non-alcoholic steatohepatitis; experiment: Sirius red staining of liver sections, fibrosis area (F18S study); settings: STAM mice liver, x200
Experimental: To visualize collagen deposition, Bouin's fixed liver sections were stained using picro-Sirius red solution (Waldeck, Germany). Briefly, sections were deparaffinized and hydrophilized with xylene, 100-70% alcohol series and RO water, and then treated with 0.03% picro-Sirius red solution (Cat No.: 1A-280) for 60 minutes. After washing with 0.5% acetic acid solution and RO water, stained sections were dehydrated and cleared with 70-100% alcohol series and xylene, then sealed with Entellan® new (Merck, Germany) and used for observation.
For quantitative analysis of the fibrosis area and inflammation area, bright field images of Sirius red-stained and F4/80-immunostained sections were captured around the central vein using a digital camera (DFC295; Leica, Germany) at 200-fold magnification, and the positive areas in 5 fields/section were measured using ImageJ software (National Institute of Health, USA).

[2] = test system: STAM mouse model of non-alcoholic steatohepatitis; experiment: HE staining, NAFLD Activity Score (F18S study); settings: STAM mice liver
Experimental: For HE staining, sections were cut from paraffin blocks of liver tissue prefixed in Bouin's solution and stained with Lillie-Mayer's Hematoxylin (Muto Pure Chemicals Co., Ltd., Japan) and eosin solution (Wako Pure Chemical Industries). The NAFLD Activity Score (NAS) was calculated according to the criteria of Kleiner (Kleiner D E. Et al., Hepatology, 2005; 41:1313), as shown in Table 2. For NAS scoring, bright field images of HE-stained sections were captured using a digital camera (DFC295; Leica, Germany) at 50- and 200-fold magnifications. Steatosis score in 1 section/mouse (representative 1 field at 50-fold magnification), inflammation score in 1 section/mouse (representative 1 field around the central vein at 200-fold magnification) and ballooning score in 1 section/mouse (representative 1 field around the central vein at 200-fold magnification) were estimated.

[3] = Plasma ALT in STAM mice (F18S study); settings: at 9 weeks of age
Experimental: At study termination, non-fasting blood was collected through direct cardiac puncture using pre-cooled syringes. The collected blood was transferred in pre-cooled polypropylene tubes with anticoagulant (Novo-Heparin) and stored on ice until centrifugation. The blood samples were centrifuged at 1,000×g for 15 minutes at 4° C. The supernatant was collected and stored at −80° C. for biochemistry and evaluation.
Plasma ALT levels were measured by FUJI DRI-CHEM 7000 (Fujifilm Corporation).

CCCc1nc2c(C)cc(-c3nc4ccccc4n3C)cc2n1Cc1ccc(-c2ccccc2C(=O)O)cc1 [Telmisartan]
decrease in firmicutes and increase in Bacteroides (gut microbiota; post-intervention, compared to all other groups): highest
Proteobacteria (gut microbiota; pre vs post-intervention): increased
Sirius red average positive stained area [1]: 0.59
NAS average score ([2]; HE staining): 2.625
NAS compared with the other groups ([2]; HE staining): significantly lesser score
Ballooning and steatosis score ([2]; compared with the vehicle): decreased most
Plasma ALT levels (Mean) [3]: 36 U/L
